Results on two compounds are retold here after US11253524B2 (Gilead Sciences, Inc., priority 2018, dated 2022).

In general, IC50 refers to the concentration that inhibits the measured activity by half. In general, inhibition refers to the percentage by which the read-out fell short of the control.

For one data set, the target named is T1, OATP1B3 (Homo sapiens, UniProt Q9NPD5).
T1 sequence (Q9NPD5 1-702): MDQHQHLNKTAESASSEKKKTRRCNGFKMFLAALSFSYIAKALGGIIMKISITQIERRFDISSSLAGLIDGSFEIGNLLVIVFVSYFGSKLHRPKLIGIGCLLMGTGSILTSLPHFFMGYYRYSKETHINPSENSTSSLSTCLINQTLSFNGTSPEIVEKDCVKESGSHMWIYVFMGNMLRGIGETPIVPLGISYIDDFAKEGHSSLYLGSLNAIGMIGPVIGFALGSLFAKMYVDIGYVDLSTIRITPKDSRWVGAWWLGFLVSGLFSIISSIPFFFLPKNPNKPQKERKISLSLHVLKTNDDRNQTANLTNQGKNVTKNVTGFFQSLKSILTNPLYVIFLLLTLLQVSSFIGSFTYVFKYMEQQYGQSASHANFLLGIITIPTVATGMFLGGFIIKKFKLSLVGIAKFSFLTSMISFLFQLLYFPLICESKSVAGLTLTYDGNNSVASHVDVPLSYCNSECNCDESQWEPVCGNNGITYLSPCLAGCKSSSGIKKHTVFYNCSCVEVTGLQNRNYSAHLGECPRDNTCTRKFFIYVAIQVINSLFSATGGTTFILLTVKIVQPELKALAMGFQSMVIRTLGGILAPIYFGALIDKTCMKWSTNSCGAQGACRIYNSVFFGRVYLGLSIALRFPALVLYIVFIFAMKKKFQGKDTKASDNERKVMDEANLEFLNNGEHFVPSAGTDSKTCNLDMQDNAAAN
The data set can be described thus: OATP1B3 inhibition assay using 3H-E217βG as probe substrate, HEK293FT cells. Format: cell-based. Details: expressed in transfected cells. The protocol: HEK293FT-Mock and OATP-transfected cells (1×10^5 cells each) were seeded 24 hr prior to assay. Pre-rinsed ells were incubated for 3 minutes with 1 μM ^3H-E217βG in HK buffer in the presence of various concentrations of test compound or positive control rifampicin. After the experiment cells were rinsed with Krebs-Henseleit buffer and lysed with 0.1 M NaOH. The amount of substrate inside the cells was determined by liquid scintillation reader.
(§1) Percent inhibition was calculated according to the following equation: % inhibition=[1−{[OATP]i−[WT]ni}/{[OATP]ni−[WT]ni}]*100 where: [OATP]i represent the substrate accumulation in the presence of test compound for either OATP1B1, OATP1B3, or OATP2B1 cells; [OATP]ni represents the substrate accumulation in the absence of test compound for either OATP1B1, OATP1B3, or OATP2B1 cells, respectively; and [WT]ni represents the substrate accumulation in the absence of test compound for wild type cells or Mock cells, respectively. IC50 Determination in Transporter Assays
(§2) IC50 was determined according to the procedures described in Example 5. […] Results are reported as NIO (no interaction observed).

Data set [1] deals with cryopreserved hepatocytes. The data set can be described thus: Metabolites of [14C]BIC in cryopreserved hepatocytes, human. Format: in vitro ADME. The settings on record: 4 hours, [14C]BIC 20 μM. The text has this: (§3) Metabolic pathways included hydroxylation (3 variants), N-dealkylation, and direct glucuronidation. All human metabolites were also observed in nonclinical species. Using the hepatocyte system where the full range of hepatic metabolic enzymes are represented, it appeared that the metabolism of BIC was extensive in monkey and dog but lower in rat and human.

Data set [2] in a line: In vivo BIC metabolism, plasma profile after oral [14C]BIC, mouse. To be noted: transgenic mice, 0 to 48 hours post dose, ND = not detected. An excerpt: Metabolic pathways included hydroxylation, oxidative defluorination, direct glucuronidation, and oxidation followed by phase II conjugation. In the monkey, BIC was metabolized through the oxidative pathways to a greater extent compared to rat and human.

Data set [3] concerns cryopreserved hepatocytes. Nature of the data set: Metabolites of [14C]BIC in cryopreserved hepatocytes, monkey. Format: in vitro ADME. The settings on record: Cynomolgus Monkey hepatocytes, 4 hours, [14C]BIC 20 μM.
Source text: as §3

A further data set deals with T2, OATP2B1 (Homo sapiens, UniProt O94956).
T2 construct: expressed in transfected cells; host or cells: MDCKII cells
T2 sequence (O94956 1-709): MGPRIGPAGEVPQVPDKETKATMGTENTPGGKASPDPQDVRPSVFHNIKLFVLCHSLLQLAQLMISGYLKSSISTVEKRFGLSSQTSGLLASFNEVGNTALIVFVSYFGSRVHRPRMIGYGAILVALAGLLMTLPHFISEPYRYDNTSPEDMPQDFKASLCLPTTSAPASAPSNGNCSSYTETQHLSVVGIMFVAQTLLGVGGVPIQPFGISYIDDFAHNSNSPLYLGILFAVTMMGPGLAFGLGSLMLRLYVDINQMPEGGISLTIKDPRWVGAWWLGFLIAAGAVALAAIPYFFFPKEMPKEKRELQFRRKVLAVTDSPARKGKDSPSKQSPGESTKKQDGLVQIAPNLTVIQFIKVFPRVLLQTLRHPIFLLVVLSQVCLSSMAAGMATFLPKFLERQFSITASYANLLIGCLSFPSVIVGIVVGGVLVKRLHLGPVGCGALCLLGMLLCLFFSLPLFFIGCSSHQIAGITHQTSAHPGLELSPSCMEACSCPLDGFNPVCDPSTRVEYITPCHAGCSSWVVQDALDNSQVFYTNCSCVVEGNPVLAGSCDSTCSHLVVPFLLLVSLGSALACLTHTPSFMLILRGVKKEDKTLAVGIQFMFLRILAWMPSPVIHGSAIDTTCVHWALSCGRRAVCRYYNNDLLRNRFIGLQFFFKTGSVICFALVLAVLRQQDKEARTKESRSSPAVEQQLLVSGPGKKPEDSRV
The data set can be described thus: OATP2B1 inhibition assay, 3H-E3S uptake, MDCKII cells. The format is cell-based. The protocol: MDCKII-Mock and OATP2B1-transfected cells (1×10^5 cells each) were seeded 24 hr prior to assay. Pre-rinsed cells were incubated for 2 minutes with 0.2 μM ^3H-E3S in HK buffer in the presence of various concentrations of test compound or positive control fluvastatin. After the experiment cells were rinsed with Krebs-Henseleit buffer and lysed with 0.1 M NaOH. The amount of substrate inside the cells was determined by liquid scintillation reader.
as §1, §2

Data set [4] is described as follows: Precipitation of test compound in transporter assay buffer. The format is physicochemical. To be noted: 300 μM, MRP2 assay buffer.

For the compound `O=C(NCc1c(F)cc(F)cc1F)c1cn2c(c(O)c1=O)C(=O)N1[C@H]3CC[C@H](C3)O[C@@H]1C2` [BIC, bictegravir, reference compound], the “IC50 (μM)” value against OATP1B3 (NIO = no interaction observed) and at OATP2B1 (NIO = no interaction observed) was “NIO” in each case. Moreover, the “Fraction of Radiochromatogram (%)” value in data set [1] was found to be 93.9%; in data set [3], 52.4%. Besides, in data set [2], the “% of Total Radioactivity in AUC Pooled Plasma” value stood at 95.5%.
With `O=C(NCc1c(F)cc(F)c(OS(=O)(=O)O)c1F)c1cn2c(c(O)c1=O)C(=O)N1C(C2)O[C@@H]2CC[C@H]1C2` (stereo partly shown) [Metabolite M20], the IC50 against OATP1B3 (NIO = no interaction observed) and on OATP2B1 (NIO = no interaction observed) was > 100 µM each time. The inhibition at 3 min, 100 µM on OATP1B3 (human, HEK293FT cells transfected with OATP1B3, probe 3H-E217βG (1 μM), at 100 μM, read-out: Maximum inhibition at highest test conc. (% of control)) was 49%. Moreover, the inhibition at 2 min, 100 µM at OATP2B1 (human, MDCKII cells transfected with OATP2B1, probe 3H-E3S (0.2 μM), at 100 μM, read-out: Maximum inhibition at highest test conc. (% of control)) is 26%. The “Precipitation in assay buffer” value in data set [4] was “Precipitation was observed”.
